Tests used:
[1] = test system: female Aedes aegypti; experiment: Flight tunnel mosquito bioassay; format: in vivo; settings: for fed (mean of triplicates) / probed (mean of triplicates): paired with control; for feeding attraction, in words: three different concentrations
Protocol: Mosquitoes: Aedes aegypti (Liverpool) were reared in an insectary using standard rearing procedures. Approximately 50 larvae were reared in plastic cups (13×7×7.5 cm) at 27±1° C., and were fed ground up fish pellets. Adults were contained in plastic cartons covered by nylon screening and were fed using cotton pads soaked in a 10% glucose solution. Prior to blood feeding, 20 adult females, approximately 6 to 8 days old, were aspirated out of the rearing cartons and placed in to a stock cage (20×20×20 cm). Flight Tunnel Mosquito Bioassay: The assay system consists of a six well reservoir placed at the upwind end of a flight tunnel ([…]). Temperature and humidity of the flight tunnel were maintained at rearing conditions as described above. Air was constantly pushed through the flight tunnel at a wind speed of 35 ft/min. The four center wells of the six well reservoir were utilized in these bioassays. One of the 3 cm×4 cm wells contained 6 ml of citrate-phosphate-dextrose-adenine (CPDA) solution and three wells contained 6 ml of CPDA solution supplemented with adenosine triphosphate (ATP) (Sigma Chemical Co., St. Louis, Mo.). A constant-temperature water circulator warmed the reservoir to 38° C. A collagen membrane (Devro, Sandy Run, S.C.) was placed over the wells and secured to the reservoir with a light coat of high-vacuum grease (Dow Corning Corp., Midland, Mich.). The membranes were replaced after each replicate observation and additional substrate was added as needed. The reservoir and CPDA solution was used for one replicate. Twenty mosquitoes were aspirated into a cylindrical release canister (20.5 mm×7 mm) containing a mesh screen on one end and a damper on the opposite end (Precision Plastics, Inc., Beltsville, Md.). Mosquitoes were allowed to acclimate in the canister for ten minutes and then were utilized in bioassays. The canister was placed downwind of the reservoir in the flight tunnel. Human breath was introduced in a plume into the tunnel for one minute prior to opening of the release canister. Mosquitoes were then released into the flight tunnel where the number of mosquitoes biting (proboscis inserted through the membrane) within each cell during the 10-min exposure was recorded. The solution in each well consisted of either CPDA in deionized water or one of the three experimental solutions, 10^−2M, 10^−3 M, or 10^−4 M ATP with CPDA, each marked with a randomly assigned food dye color (Betty Crocker). The position of each colored solution in the reservoir was also randomized. Mosquitoes were used once in a test and then aspirated for determination of engorgement. Several attractant candidates were compared one on one with each other, and with CO2 in the flight tunnel to evaluate efficacy.

[2] = test system: female Aedes aegypti; experiment: K&D module high-throughput feeding assay; format: in vivo; settings: for mean fed / mean probed: five females/cell
Protocol: Highthrouhput Feeding Assay: The K&D module was developed at USDA for evaluating feeding deterrence and toxicity of candidate topical repellents against hemophagus arthropod vectors (Klun, J. A., and M. Debboun, J. Med. Entomol., 37: 177-181 (2000)). In the present study the K&D module was used as a highthrouhput screening tool to evaluate response of Ae. aegypti to attractant\feeding stimuli.
In vitro bioassays were conducted as described by Klun et. al., 2000. […] The three treatments were randomly assigned to consecutive cells in 2,6-cell reservoirs connected in series to a single water-bath pump; thus, 4 replicates could be tested/run.
Tests were performed in an Air Science USA hood, with an air movement velocity of approx. 110-120 ft./min., temperature of 25-27° C., and RH of 15-25%. A six-celled reservoir was connected to and heated by a constant-temperature (38° C.) water circulator (Lauda E100, Wobser GMGH and Co., Konigshofell, Germany).
Prior to each test, the upper surface of each reservoir was coated with a thin layer of high-vacuum silicone grease (Dow Corning Corp., Midland, Mich.), and the cells then filled (approx. 6 ml. capacity) or topped-off with the following: (1) expired human red blood cells suspended in citrate-phosphate-dextrose-adenine (CPDA) solution, not more than 1 month past expiration date, and to which 110 mg ATP/35 ml. blood-CPDA had been added on the day of testing; or (2) CPDA+ATP×10^−3, usually made up or diluted to 10^−3 ATP on the day of testing.
The filled cells were then covered with an Edicol collagen membrane strip (Devro, Sandy Run, S.C.), and then with a just-treated (110 μl of 4.54 nmol/μl treatment or control solution) organdy cloth strip (G Street Fabrics, Rockville, Md.).
Mosquitoes used in the tests were either Aedes aegypti (Liverpool) or Aedes albopictus (Asian Tiger mosquitoes (ATMs)). Ae. aegypti and Ae. albopictus were originally obtained from colonies at the Walter Reed Army Institute of Research (WRAIR), Silver Spring, Md., and were maintained in colonies at the Beltsville Agricultural Research Center, USDA, ARS, Beltsville, Md. The larvae were reared (Gerber, E. J., et al., Manual for mosquito rearing and experimental techniques, Am. Mosq. Control Assoc. Bull. 5 (revised), AMCA, Inc., Lake Charles, La. (1994)) by feeding larvae ground tropical fish pellets (Hikari Cichlid Gold Fish Food, Kamihata Fish Ind. Ltd., Himeji, Japan, www.hikari.info). Adults were held at 12:12 h (light:dark) photoperiod at 26° C. and 50% RH, and fed with a cotton pad moistened with 10% aqueous sucrose solution. For both species, adult mosquitoes used in the tests were between 5-10 days old, and were kept on water pads only for 24 hrs. prior to testing. Ae. aegypti used in a given test session were all loaded into K&D modules at one time, with five adult females/cell, and tested within I-2 hrs.
K&D modules containing five adult females/cell were placed over a Teflon separator atop each reservoir; the sliding floors opened allowing access to the treated organdy cloth and membrane-covered cell, and the number of mosquitoes biting (proboscis inserted through the cloth) and/or observed to be engorged within each cell at the end of a 3-5 min. exposure period was recorded. Mosquitoes were used only once in a test, and then frozen and discarded.
Only tests in which three or more females fed in the control cell were analyzed, as lower feeding rates are indicative of substandard feeding readiness of that group of mosquitoes.
Feeding/probing responses observed on control, standard, and experimental compound-treated cells were compared using an R-code statistical analysis (Chauhan, K. R., et al., Journal of Medical Entomology, 42: 643-646 (2005)).

[3] = test system: Ae. aegypti; experiment: Attract and kill bait evaluation in bucket; format: in vivo, Aedes aegypti; settings: sugar gel containing pyriproxyfen spiked with 5 ml of Okoumal
Source text: Attract and Kill Bait Evaluation: The assay system consists of a 1L plastic bucket covered with screened lid. A divider was placed to separate attract and kill bait from the control feeding. 50 Adult mosquitoes used in tests were between 5-10 days old, and were kept on water pads only for 24 hrs. prior to testing. Ae. aegypti used in each test session were all loaded into plastic bucket with attract and kill bait and control feeding formulation made with agarose gel containing sugar and color. In the preliminary semi-field trial, baits were charged with attractant candidates and deployed in to the either hut or tents. In one experiment 30 adult female Aedes aegypti mosquitoes were released, while in another trial at different location 20 adult female Aedes aegypti mosquitoes were released and observed for the attraction or attract-kill effect of the candidates. To incorporate invented field stable and long lasting attractants in the baits various putative devices were constructed and few of these attract and kill bait formulations were evaluated in the insectary and semi-field conditions. Data analysis: Attraction assay data were analyzed using the Wilcoxon two-sample test (PROC NPAR1WAY, SAS 1999) to examine the difference between the numbers of mosquitoes in control from treated baits. […]

[4] = test system: host seeking Aedes albopictus females; experiment: Field study with BG Sentinel traps in yards; format: in vivo; settings: BG Sentinel trap with attractant lure, 24 hr periods, 10 yards; control 3-4
Protocol: In field studies, Okoumal (1) was evaluated as an attractant for host seeking Aedes albopictus females in the BG Sentinel traps placed in different areas (yards). In the before and after control intervention evaluation, one standard BG Sentinel mosquito trap was placed in each of the 10 yards and mosquitoes were trapped for 24 hr periods in ten replicates. The first five replicates were before adding Okoumal attractant as intervention. The second set of five replicates included additional lure to the BG Sentinel trap. The traps with attractant lures collected more mean mosquitoes per trap per day (6-7 vs 3-4 mosquitoes), compared to control.

[5] = test system: Aedes albopictus, Ae. triseratus, and Ae. japonicus; experiment: Field study with oviposition cups; format: in vivo; settings: 0 to 1% in oviposition cups, forested area, retrieved after 10 days
Protocol: In the second field study different concentrations (0 to 1%) of Okoumal (1) were added to oviposition cups. Oviposition cups were placed in forested area that has known populations of Aedes albopictus, Ae. triseratus, and Ae. japonicus. Ovicups were retrieved after 10 days and accessed for the presence of mosquito eggs of different species.

[6] = test system: mosquitoes; settings: compared with matching control traps baited with CO2; cited from earlier work
[7] = CO2 (dry ice) + air paired with 0.1% Okoumal
[8] = CO2 (dry ice) + air paired with 0.1% cyclopentanone
[9] = CO2 (dry ice) + air paired with 1% Okoumal
[10] = CO2 (dry ice) + air paired with 1% cyclopentanone
[11] = CO2 (dry ice) + air paired with air
[12] = 0.1% concentration, paired with CO2 (dry ice) + air
[13] = 1% concentration, paired with CO2 (dry ice) + air

Row | SMILES | fed (mean of triplicates) ([1]; 0.10% concentration) | probed (mean of triplicates) ([1]; 0.10% concentration) | fed (mean of triplicates) ([1]; 1.00% concentration) | probed (mean of triplicates) ([1]; 1.00% concentration) | fed (mean of triplicates) ([1]; 5% concentration) | probed (mean of triplicates) ([1]; 5% concentration) | feeding attraction, in words [1] | also measured
1 | O=C=O [CO2 (dry ice), Carbon dioxide, reference compound] | – | – | – | – | – | – | – | mean fed [1, 7]: 3; mean probed [1, 7]: 3.7; mean fed [1, 8]: 2.8; mean probed [1, 8]: 3.1; mean fed [1, 9]: 2; mean probed [1, 9]: 2.2; mean fed [1, 10]: 2.1; mean probed [1, 10]: 2.3; mean fed [1, 11]: 1.8; mean probed [1, 11]: 2.1
2 | C1CCC2(C1)OCCO2 [Compound I-90] | 2.7 | 5.7 | 4 | 8.3 | 3 | 8.7 | consistent feeding attraction | –
3 | CC1COC2(CCCC2)O1 (centres unmarked) [Compound I-95] | – | – | 3.3 | 12 | 3.3 | 8.3 | – | –
4 | CC1COC2(CCCCC2)O1 (centres unmarked) [Compound I-96] | 3 | 6.3 | 2.7 | 8.3 | 2.7 | 12.7 | consistent feeding attraction | –
5 | COC1(OC)CCCC1 [Compound I-152] | – | – | 0.7 | 1.3 | 1 | 1.7 | – | –
6 | COC1(OC)CCCCC1 [Compound I-182] | – | – | 2.7 | 5.7 | 2 | 12.3 | – | –
7 | CCN(CC)C(=O)c1cccc(C)c1 [Deet, reference compound] | – | – | – | – | – | – | – | mean fed ([2]; Deet standard (4.54 nmol/μl)): 0.1; mean probed ([2]; Deet standard (4.54 nmol/μl)): 0.1
8 | CC1COC(C)(c2ccc3c(c2)C(C)(C)CCC3(C)C)O1 (centres unmarked) [Okoumal] | 3.3 | 18.3 | 2.8 | 9.7 | 2.3 | 13.3 | consistent feeding attraction | mean fed ([2]; 0.1% concentration): 3.6; mean probed ([2]; 0.1% concentration): 3.3; mean fed ([2]; 0.25% concentration): 2.8; mean probed ([2]; 0.25% concentration): 3; mean fed ([2]; 1% concentration): 3.5; mean probed ([2]; 1% concentration): 3.9; mean fed ([2]; 5% concentration): 2.8; mean probed ([2]; 5% concentration): 2.9; feeding compared with control, in words ([2]; four different concentrations, twenty replicates): consistent feeding on par with either control or better; mean fed [1, 12]: 3.9; mean probed [1, 12]: 3.6; mean fed [1, 13]: 3.8; mean probed [1, 13]: 4.1; feeding (host seeking) preference, in words ([1]; compared with CO2 and cyclopentanone, host seeking female mosquitoes): consistent feeding (host seeking) preference; mosquitoes in the bucket preferring feeding on treated gel over control sugar gel [3]: 90%; mean mosquitoes per trap per day [4]: 6-7 mosquitoes; effect on numbers of oviposited eggs, in words [5]: significant effect of Okoumal concentration on numbers of oviposited eggs
9 | O=C1CCCCC1 [cyclohexanone, reference compound] | – | – | 0.3 | 0.7 | 1.7 | 3.7 | – | –
10 | O=C1CCCC1 [cyclopentanone, reference compound] | 3 | 7 | 2 | 5.7 | 1 | 1.7 | – | mean fed [1, 12]: 2.6; mean probed [1, 12]: 2.2; mean fed [1, 13]: 2.1; mean probed [1, 13]: 2.8; attractiveness of baited traps, in words [6]: equivalent to that of matching control traps baited with CO2
